Columns and labels:
[1] = molecular target: T1, PIK3CA(H1047L) (Homo sapiens, UniProt P42336, H1047L); assay: KINOMEscan at 1 μM, PIK3CA(H1047L); assay type: binding; details: 1000 nM, read-out: Percent Control
T1 construct: purchased Eurofins DiscoverX KINOMEscan
Description: (§1) Supplement cells-12-00287-s001.zip/File S2. KinomeScan data for the CAMKK2 probe and negative control.xlsx, sheet "SGC-CAMKK2-1N" | column: Percent Control

[2] = molecular target: T2, JAK3(JH1domain-catalytic) (Homo sapiens, UniProt P52333); assay: KINOMEscan at 1 μM, JAK3(JH1domain-catalytic); assay type: binding; details: 1000 nM, read-out: Percent Control
T2 construct: JAK3(JH1domain-catalytic); purchased Eurofins DiscoverX KINOMEscan
T2 sequence (P52333 813-1124 limits assumed): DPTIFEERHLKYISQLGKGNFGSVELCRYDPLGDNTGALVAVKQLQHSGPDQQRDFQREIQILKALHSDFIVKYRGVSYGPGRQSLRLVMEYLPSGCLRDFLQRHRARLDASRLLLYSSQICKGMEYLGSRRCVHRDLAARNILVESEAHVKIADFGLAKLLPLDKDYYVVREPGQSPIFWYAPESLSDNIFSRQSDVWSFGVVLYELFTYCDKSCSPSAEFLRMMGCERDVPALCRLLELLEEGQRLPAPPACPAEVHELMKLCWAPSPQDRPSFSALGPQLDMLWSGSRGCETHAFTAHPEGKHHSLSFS
Description: as §1

[3] = molecular target: T3, WNK4 (Homo sapiens, UniProt Q96J92); assay: KINOMEscan at 1 μM, WNK4; assay type: binding; details: 1000 nM, read-out: Percent Control
T3 construct: purchased Eurofins DiscoverX KINOMEscan
T3 sequence (Q96J92 whole entry): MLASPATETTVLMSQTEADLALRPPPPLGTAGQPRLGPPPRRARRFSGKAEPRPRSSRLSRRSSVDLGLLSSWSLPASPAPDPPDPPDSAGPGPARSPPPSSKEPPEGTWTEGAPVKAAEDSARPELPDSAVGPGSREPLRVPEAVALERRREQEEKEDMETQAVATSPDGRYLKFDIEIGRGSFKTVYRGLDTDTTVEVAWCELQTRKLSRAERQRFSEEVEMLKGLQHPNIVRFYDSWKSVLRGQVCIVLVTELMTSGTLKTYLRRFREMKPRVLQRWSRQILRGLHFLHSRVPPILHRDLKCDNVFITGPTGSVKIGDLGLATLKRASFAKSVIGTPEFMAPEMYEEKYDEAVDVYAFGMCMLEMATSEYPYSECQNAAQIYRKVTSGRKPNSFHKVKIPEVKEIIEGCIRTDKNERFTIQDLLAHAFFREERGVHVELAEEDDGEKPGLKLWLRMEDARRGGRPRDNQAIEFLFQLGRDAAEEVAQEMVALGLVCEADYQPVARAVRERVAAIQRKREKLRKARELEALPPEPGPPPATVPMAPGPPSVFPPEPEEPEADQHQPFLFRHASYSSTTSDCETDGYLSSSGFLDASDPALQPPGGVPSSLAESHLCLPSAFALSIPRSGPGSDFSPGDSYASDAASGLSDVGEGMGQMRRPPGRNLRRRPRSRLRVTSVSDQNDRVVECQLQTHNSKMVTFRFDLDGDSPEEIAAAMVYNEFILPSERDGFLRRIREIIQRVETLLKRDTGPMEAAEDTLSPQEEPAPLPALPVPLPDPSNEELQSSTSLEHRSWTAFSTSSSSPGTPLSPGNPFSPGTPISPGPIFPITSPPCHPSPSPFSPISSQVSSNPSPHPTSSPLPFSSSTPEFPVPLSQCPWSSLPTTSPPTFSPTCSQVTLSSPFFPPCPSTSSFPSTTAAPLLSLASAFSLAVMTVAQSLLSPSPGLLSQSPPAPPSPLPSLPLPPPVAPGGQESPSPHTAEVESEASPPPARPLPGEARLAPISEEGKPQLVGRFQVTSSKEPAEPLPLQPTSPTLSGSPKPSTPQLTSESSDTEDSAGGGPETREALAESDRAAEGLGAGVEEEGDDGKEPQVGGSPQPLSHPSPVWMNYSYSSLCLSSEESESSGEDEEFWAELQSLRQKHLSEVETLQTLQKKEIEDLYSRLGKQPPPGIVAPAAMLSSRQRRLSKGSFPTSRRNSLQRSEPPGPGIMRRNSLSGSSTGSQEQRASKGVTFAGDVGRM
Description: as §1

[4] = molecular target: T4, LRRK2 (Homo sapiens, UniProt Q5S007); assay: KINOMEscan at 1 μM, LRRK2; assay type: binding; details: 1000 nM, read-out: Percent Control
T4 construct: purchased Eurofins DiscoverX KINOMEscan
Description: as §1

[5] = molecular target: T5, STK36 (Homo sapiens, UniProt Q9NRP7); assay: KINOMEscan at 1 μM, STK36; assay type: binding; details: 1000 nM, read-out: Percent Control
T5 construct: purchased Eurofins DiscoverX KINOMEscan
Description: as §1

[6] = molecular target: T6, FGFR1 (Homo sapiens, UniProt P11362); assay: KINOMEscan binding assay at 1 μM, FGFR1; details: Compound Concentration 1000 nM; read-out: Percent Control
T6 construct: purchased Eurofins DiscoverX KINOMEscan
T6 sequence (P11362 22-822): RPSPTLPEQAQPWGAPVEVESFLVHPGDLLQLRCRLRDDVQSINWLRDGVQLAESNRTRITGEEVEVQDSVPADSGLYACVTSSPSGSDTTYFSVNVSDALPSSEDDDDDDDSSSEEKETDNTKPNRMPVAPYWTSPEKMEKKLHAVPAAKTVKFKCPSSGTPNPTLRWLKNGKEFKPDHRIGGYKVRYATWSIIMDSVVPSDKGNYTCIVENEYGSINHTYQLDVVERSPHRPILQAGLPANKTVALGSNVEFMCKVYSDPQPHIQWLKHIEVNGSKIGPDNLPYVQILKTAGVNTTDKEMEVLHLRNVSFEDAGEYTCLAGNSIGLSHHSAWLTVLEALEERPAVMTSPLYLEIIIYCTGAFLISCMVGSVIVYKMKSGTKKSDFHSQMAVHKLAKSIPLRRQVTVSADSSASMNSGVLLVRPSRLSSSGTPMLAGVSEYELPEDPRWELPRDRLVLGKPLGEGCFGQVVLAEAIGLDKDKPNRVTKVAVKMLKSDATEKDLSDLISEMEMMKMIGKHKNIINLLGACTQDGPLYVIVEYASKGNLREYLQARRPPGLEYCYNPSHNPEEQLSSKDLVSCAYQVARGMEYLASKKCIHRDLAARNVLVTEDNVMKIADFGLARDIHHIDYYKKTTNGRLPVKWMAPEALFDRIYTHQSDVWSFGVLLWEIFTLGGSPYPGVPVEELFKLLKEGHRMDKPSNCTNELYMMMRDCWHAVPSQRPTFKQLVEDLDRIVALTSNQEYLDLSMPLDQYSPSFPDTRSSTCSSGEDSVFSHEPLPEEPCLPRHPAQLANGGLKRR
Description: as §1

[7] = molecular target: T7, QSK (Homo sapiens, UniProt Q9Y2K2); assay: KINOMEscan at 1 μM, QSK; assay type: binding; details: 1000 nM, read-out: Percent Control
T7 construct: purchased Eurofins DiscoverX KINOMEscan
Description: as §1

[8] = molecular target: T8, LRRK2(G2019S) (Homo sapiens, UniProt Q5S007, G2019S); assay: KINOMEscan at 1 μM, LRRK2(G2019S); assay type: binding; details: 1000 nM, read-out: Percent Control
T8 construct: purchased Eurofins DiscoverX KINOMEscan
Description: as §1

[9] = molecular target: T9, ERBB3 (Homo sapiens, UniProt P21860); assay: KINOMEscan at 1 μM, ERBB3; assay type: binding; details: 1000 nM, read-out: Percent Control
T9 construct: purchased Eurofins DiscoverX KINOMEscan
T9 sequence (P21860 20-1342): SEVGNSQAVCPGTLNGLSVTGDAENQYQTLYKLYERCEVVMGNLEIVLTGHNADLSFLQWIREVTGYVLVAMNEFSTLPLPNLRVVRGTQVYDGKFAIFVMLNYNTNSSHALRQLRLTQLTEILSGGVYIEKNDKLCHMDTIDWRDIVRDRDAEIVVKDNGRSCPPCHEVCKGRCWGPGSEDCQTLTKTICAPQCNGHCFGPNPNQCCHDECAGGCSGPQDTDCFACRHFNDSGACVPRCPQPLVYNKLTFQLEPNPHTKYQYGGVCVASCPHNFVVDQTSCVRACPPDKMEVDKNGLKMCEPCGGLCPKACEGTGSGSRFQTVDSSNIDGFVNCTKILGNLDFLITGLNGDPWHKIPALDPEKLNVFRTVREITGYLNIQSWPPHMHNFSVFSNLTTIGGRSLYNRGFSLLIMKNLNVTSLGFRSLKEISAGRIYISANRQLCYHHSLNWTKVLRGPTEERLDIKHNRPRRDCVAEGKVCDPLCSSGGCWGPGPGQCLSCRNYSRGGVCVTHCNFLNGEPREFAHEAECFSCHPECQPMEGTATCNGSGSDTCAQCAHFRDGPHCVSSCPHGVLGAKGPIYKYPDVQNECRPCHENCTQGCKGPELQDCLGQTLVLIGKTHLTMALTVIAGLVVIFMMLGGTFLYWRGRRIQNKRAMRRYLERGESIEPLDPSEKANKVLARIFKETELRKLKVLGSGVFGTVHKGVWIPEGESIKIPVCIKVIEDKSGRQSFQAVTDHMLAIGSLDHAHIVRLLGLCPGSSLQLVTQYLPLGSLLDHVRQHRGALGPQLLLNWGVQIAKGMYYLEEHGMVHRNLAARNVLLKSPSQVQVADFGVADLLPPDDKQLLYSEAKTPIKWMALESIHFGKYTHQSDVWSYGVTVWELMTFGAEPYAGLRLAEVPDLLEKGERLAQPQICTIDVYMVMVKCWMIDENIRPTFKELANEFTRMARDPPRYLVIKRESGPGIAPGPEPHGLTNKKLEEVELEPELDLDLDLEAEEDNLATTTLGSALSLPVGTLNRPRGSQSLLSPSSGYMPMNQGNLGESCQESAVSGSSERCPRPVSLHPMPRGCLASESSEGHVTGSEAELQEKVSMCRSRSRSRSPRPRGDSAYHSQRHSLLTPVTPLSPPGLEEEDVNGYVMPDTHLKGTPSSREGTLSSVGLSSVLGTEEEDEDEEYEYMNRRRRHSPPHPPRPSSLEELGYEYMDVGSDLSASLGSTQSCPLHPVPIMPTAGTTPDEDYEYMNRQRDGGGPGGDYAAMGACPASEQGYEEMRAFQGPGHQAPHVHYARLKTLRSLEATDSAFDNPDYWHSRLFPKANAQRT
Description: as §1

[10] = molecular target: T10, CDKL1 (Homo sapiens, UniProt Q00532); assay: KINOMEscan at 1 μM, CDKL1; assay type: binding; details: 1000 nM, read-out: Percent Control
T10 construct: purchased Eurofins DiscoverX KINOMEscan
Description: as §1

[11] = molecular target: T11, FES (Homo sapiens, UniProt P07332); assay: KINOMEscan at 1 μM, FES; assay type: binding; details: 1000 nM, read-out: Percent Control
T11 construct: purchased Eurofins DiscoverX KINOMEscan
T11 sequence (P07332 whole entry): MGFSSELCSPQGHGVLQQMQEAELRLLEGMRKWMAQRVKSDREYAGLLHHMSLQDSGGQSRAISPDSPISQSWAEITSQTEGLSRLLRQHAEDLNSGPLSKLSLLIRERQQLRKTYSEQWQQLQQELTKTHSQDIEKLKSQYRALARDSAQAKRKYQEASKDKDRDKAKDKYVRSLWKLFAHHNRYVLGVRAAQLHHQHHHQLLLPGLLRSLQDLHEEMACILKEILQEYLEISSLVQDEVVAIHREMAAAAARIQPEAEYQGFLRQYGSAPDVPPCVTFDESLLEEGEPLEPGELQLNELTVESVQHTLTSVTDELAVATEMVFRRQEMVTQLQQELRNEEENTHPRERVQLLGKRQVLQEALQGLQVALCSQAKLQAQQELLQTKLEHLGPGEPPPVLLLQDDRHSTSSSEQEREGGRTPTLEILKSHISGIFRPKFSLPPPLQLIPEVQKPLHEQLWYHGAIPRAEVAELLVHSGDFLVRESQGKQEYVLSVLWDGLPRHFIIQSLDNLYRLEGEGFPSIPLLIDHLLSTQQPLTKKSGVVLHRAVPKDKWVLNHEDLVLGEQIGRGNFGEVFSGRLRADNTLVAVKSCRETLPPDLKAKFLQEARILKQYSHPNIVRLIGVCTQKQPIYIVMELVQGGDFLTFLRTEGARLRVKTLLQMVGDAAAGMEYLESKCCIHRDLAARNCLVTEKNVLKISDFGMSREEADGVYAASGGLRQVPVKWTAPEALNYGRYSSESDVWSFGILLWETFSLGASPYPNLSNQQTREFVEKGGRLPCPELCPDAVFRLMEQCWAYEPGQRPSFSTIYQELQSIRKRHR
Description: as §1

[12] = molecular target: T12, MYLK (Homo sapiens, UniProt Q15746); assay: KINOMEscan at 1 μM, MYLK; assay type: binding; details: 1000 nM, read-out: Percent Control
T12 construct: purchased Eurofins DiscoverX KINOMEscan
Description: as §1

[13] = molecular target: T13, IGF1R (Homo sapiens, UniProt P08069); assay: KINOMEscan binding assay at 1 μM, IGF1R; details: Compound Concentration 1000 nM; read-out: Percent Control
T13 construct: purchased Eurofins DiscoverX KINOMEscan
Description: as §1

[14] = molecular target: T14, CAMK4 (Homo sapiens, UniProt Q16566); assay: KINOMEscan at 1 μM, CAMK4; assay type: binding; details: 1000 nM, read-out: Percent Control
T14 construct: purchased Eurofins DiscoverX KINOMEscan
Description: as §1

[15] = molecular target: T15, PKAC-alpha (Homo sapiens, UniProt P17612); assay: KINOMEscan binding assay at 1 μM, PKAC-alpha; details: Compound Concentration 1000 nM; read-out: Percent Control
T15 construct: purchased Eurofins DiscoverX KINOMEscan
Description: as §1

[16] = molecular target: T16, CSNK1G3 (Homo sapiens, UniProt Q9Y6M4); assay: KINOMEscan at 1 μM, CSNK1G3; assay type: binding; details: 1000 nM, read-out: Percent Control
T16 construct: purchased Eurofins DiscoverX KINOMEscan
T16 sequence (Q9Y6M4 whole entry): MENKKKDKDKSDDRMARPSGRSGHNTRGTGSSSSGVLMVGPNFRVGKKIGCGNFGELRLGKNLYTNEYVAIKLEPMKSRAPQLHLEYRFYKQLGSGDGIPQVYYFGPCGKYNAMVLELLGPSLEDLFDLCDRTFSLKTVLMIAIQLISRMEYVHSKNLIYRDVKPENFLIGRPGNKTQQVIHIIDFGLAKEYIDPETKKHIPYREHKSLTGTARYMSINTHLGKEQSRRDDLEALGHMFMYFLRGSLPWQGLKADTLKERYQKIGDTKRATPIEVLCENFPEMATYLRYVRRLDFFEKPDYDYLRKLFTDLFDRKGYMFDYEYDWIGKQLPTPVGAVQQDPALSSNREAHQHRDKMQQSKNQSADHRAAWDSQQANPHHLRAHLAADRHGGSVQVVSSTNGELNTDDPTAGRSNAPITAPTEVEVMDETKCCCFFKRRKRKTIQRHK
Description: as §1

[17] = molecular target: T17, CSNK1G2 (Homo sapiens, UniProt P78368); assay: KINOMEscan at 1 μM, CSNK1G2; assay type: binding; details: 1000 nM, read-out: Percent Control
T17 construct: purchased Eurofins DiscoverX KINOMEscan
Description: as §1

[18] = molecular target: T18, DLK (Homo sapiens, UniProt Q12852); assay: KINOMEscan at 1 μM, DLK; assay type: binding; details: 1000 nM, read-out: Percent Control
T18 construct: purchased Eurofins DiscoverX KINOMEscan
Description: as §1

[19] = molecular target: T19, BIKE (Homo sapiens, UniProt Q9NSY1); assay: KINOMEscan at 1 μM, BIKE; assay type: binding; details: 1000 nM, read-out: Percent Control
T19 construct: purchased Eurofins DiscoverX KINOMEscan
Description: as §1

[20] = molecular target: T20, JAK1(JH2domain-pseudokinase) (Homo sapiens, UniProt P23458); assay: KINOMEscan at 1 μM, JAK1(JH2domain-pseudokinase); assay type: binding; details: 1000 nM, read-out: Percent Control
T20 construct: JAK1(JH2domain-pseudokinase); purchased Eurofins DiscoverX KINOMEscan
Description: as §1

[21] = molecular target: T21, SRPK2 (Homo sapiens, UniProt P78362); assay: KINOMEscan at 1 μM, SRPK2; assay type: binding; details: 1000 nM, read-out: Percent Control
T21 construct: purchased Eurofins DiscoverX KINOMEscan
Description: as §1

[22] = molecular target: T22, CAMK1D (Homo sapiens, UniProt Q8IU85); assay: KINOMEscan 1 μM, CAMK1D; assay type: binding; details: 1000 nM; Entrez CAMK1D; read-out: Percent Control
T22 construct: purchased Eurofins DiscoverX KINOMEscan
Description: (§2) Supplement cells-12-00287-s001.zip/File S2. KinomeScan data for the CAMKK2 probe and negative control.xlsx, sheet "SGC-CAMKK2-1" | column: Percent Control

[23] = molecular target: T23, PRKD3 (Homo sapiens, UniProt O94806); assay: KINOMEscan 1 μM, PRKD3; assay type: binding; details: 1000 nM; Entrez PRKD3; read-out: Percent Control
T23 construct: purchased Eurofins DiscoverX KINOMEscan
Description: as §2

[24] = molecular target: T24, NDR2 (Homo sapiens, UniProt Q9Y2H1); assay: KINOMEscan 1 μM, NDR2; assay type: binding; details: 1000 nM; Entrez STK38L; read-out: Percent Control
T24 construct: purchased Eurofins DiscoverX KINOMEscan
Description: as §2

[25] = molecular target: T25, MST2 (Homo sapiens, UniProt Q13188); assay: KINOMEscan 1 μM, MST2; assay type: binding; details: 1000 nM; Entrez STK3; read-out: Percent Control
T25 construct: purchased Eurofins DiscoverX KINOMEscan
Description: as §2

[26] = molecular target: T26, FLT3(K663Q) (Homo sapiens, UniProt P36888, K663Q); assay: KINOMEscan 1 μM, FLT3(K663Q); assay type: binding; details: 1000 nM; Entrez FLT3; read-out: Percent Control
T26 construct: purchased Eurofins DiscoverX KINOMEscan
Description: as §2

[27] = molecular target: T27, SNARK (Homo sapiens, UniProt Q9H093); assay: DiscoverX KINOMEscan binding assay at 1 μM, SNARK; details: SNARK (NUAK2); Compound Concentration 1000 nM; read-out: Percent Control
T27 construct: purchased Eurofins DiscoverX KINOMEscan
Description: as §2

[28] = molecular target: T28, MET(Y1235D) (Homo sapiens, UniProt P08581, Y1235D); assay: KINOMEscan 1 μM, MET(Y1235D); assay type: binding; details: 1000 nM; Entrez MET; read-out: Percent Control
T28 construct: purchased Eurofins DiscoverX KINOMEscan
Description: as §2

[29] = molecular target: T29, PIK3CA (Homo sapiens, UniProt P42336); assay: DiscoverX KINOMEscan binding assay at 1 μM, PIK3CA; details: Compound Concentration 1000 nM, read-out: Percent Control
T29 construct: purchased Eurofins DiscoverX KINOMEscan
Description: as §2

[30] = molecular target: T30, ERK3 (Homo sapiens, UniProt Q16659); assay: KINOMEscan 1 μM, ERK3; assay type: binding; details: 1000 nM; Entrez MAPK6; read-out: Percent Control
T30 construct: purchased Eurofins DiscoverX KINOMEscan
Description: as §2

[31] = molecular target: T15, PKAC-alpha; assay: DiscoverX KINOMEscan binding assay at 1 μM, PKAC-alpha; details: PKAC-alpha (PRKACA); Compound Concentration 1000 nM; read-out: Percent Control
Description: as §2

[32] = molecular target: T31, MYLK4 (Homo sapiens, UniProt Q86YV6); assay: KINOMEscan 1 μM, MYLK4; assay type: binding; details: 1000 nM; Entrez MYLK4; read-out: Percent Control
T31 construct: purchased Eurofins DiscoverX KINOMEscan
Description: as §2

[33] = molecular target: T32, DAPK2 (Homo sapiens, UniProt Q9UIK4); assay: KINOMEscan 1 μM, DAPK2; assay type: binding; details: 1000 nM; Entrez DAPK2; read-out: Percent Control
T32 construct: purchased Eurofins DiscoverX KINOMEscan
Description: as §2

[34] = molecular target: T33, MRCKB (Homo sapiens, UniProt Q9Y5S2); assay: KINOMEscan 1 μM, MRCKB; assay type: binding; details: 1000 nM; Entrez CDC42BPB; read-out: Percent Control
T33 construct: purchased Eurofins DiscoverX KINOMEscan
Description: as §2

O=C(O)c1ccc(-c2coc3ncc(-c4ccccc4)cc23)cc1Cl [SGC-CAMKK2-1N (UNC-YL-83)]
remaining binding at 1 µM [1]: 53% | remaining binding at 1 µM [2]: 87% | remaining binding at 1 µM [3]: 93% | remaining binding at 1 µM [4]: 47% | remaining binding at 1 µM [5]: 75% | remaining binding at 1 µM [6]: 100% | remaining binding at 1 µM [7]: 46% | remaining binding at 1 µM [8]: 90% | remaining binding at 1 µM [9]: 64% | remaining binding at 1 µM [10]: 72% | remaining binding at 1 µM [11]: 88% | remaining binding at 1 µM [12]: 69% | remaining binding at 1 µM [13]: 100% | remaining binding at 1 µM [14]: 100% | remaining binding at 1 µM [15]: 100% | remaining binding at 1 µM [16]: 76% | remaining binding at 1 µM [17]: 100% | remaining binding at 1 µM [18]: 77% | remaining binding at 1 µM [19]: 94% | remaining binding at 1 µM [20]: 80% | remaining binding at 1 µM [21]: 76%

Cc1cccc(-c2cnc3occ(-c4ccc(C(=O)O)c(C5CCCC5)c4)c3c2)c1 [SGC-CAMKK2-1 (YL-36)]
remaining binding at 1 µM [22]: 94% | remaining binding at 1 µM [23]: 77% | remaining binding at 1 µM [24]: 100% | remaining binding at 1 µM [25]: 95% | remaining binding at 1 µM [26]: 100% | remaining binding at 1 µM [27]: 100% | remaining binding at 1 µM [28]: 98% | remaining binding at 1 µM [29]: 100% | remaining binding at 1 µM [30]: 81% | remaining binding at 1 µM [31]: 100% | remaining binding at 1 µM [32]: 100% | remaining binding at 1 µM [33]: 94% | remaining binding at 1 µM [34]: 82%
